Common to all, as to assay: HotSpot kinase profiling
Type in all cases: biochemical

For one experiment, the target named is T1, CDK7/cyclin H (Homo sapiens, UniProt P50613).
T1 construct: purchased Reaction Biology Corp
In a few lines: (§1)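 Activity is measured by radiolabel transfer captured on P81 filters after a 2 h room-temperature reaction of kinase, substrate and cofactors. Values are percent inhibition against DMSO.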

Another experiment addresses T2, IRR/INSRR (Homo sapiens, UniProt P14616).
T2 construct: purchased Reaction Biology Corp
In a few lines: as §1

A further experiment has as its target T3, MARK4 (Homo sapiens, UniProt Q96L34).
T3 construct: purchased Reaction Biology Corp
T3 sequence (Q96L34 1-752): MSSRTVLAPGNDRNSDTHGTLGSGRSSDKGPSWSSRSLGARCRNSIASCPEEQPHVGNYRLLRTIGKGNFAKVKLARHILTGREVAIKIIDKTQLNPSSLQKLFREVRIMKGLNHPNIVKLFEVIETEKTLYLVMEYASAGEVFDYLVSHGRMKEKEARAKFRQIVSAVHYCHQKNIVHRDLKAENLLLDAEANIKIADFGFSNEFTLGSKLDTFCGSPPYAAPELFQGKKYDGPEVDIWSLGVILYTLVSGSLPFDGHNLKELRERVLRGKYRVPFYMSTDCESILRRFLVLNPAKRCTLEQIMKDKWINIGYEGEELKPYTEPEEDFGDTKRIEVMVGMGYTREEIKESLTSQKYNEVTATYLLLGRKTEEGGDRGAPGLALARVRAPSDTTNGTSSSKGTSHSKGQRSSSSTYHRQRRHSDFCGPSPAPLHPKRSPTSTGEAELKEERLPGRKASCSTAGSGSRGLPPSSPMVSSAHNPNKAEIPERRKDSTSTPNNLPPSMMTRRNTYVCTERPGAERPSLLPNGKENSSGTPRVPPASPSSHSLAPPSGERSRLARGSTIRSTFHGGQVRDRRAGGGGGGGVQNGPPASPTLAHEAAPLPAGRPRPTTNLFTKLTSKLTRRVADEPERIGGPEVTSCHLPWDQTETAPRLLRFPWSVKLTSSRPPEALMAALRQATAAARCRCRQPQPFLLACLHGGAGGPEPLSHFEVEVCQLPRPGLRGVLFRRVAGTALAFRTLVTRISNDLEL
A digest of the protocol:
as §1

Another experiment concerns the target T4, NEK5 (Homo sapiens, UniProt Q6P3R8).
T4 construct: purchased Reaction Biology Corp
T4 sequence (Q6P3R8 1-708): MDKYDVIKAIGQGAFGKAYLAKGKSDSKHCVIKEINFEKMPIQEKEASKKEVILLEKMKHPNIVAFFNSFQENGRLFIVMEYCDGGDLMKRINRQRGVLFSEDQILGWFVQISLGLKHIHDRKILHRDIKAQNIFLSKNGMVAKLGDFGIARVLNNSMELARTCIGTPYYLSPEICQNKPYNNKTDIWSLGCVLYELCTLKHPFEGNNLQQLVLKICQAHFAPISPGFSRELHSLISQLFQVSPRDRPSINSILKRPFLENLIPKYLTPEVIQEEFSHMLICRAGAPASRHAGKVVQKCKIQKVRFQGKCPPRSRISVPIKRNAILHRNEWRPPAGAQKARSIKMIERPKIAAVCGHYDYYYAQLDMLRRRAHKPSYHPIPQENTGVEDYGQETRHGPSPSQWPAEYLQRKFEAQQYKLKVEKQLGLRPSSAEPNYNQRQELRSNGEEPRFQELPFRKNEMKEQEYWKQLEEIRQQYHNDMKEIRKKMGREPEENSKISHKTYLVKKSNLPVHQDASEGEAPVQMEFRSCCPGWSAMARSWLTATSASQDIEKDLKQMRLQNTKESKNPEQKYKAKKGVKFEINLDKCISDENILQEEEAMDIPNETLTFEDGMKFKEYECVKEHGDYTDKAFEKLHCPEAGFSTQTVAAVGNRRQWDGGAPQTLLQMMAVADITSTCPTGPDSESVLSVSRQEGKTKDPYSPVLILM
A digest of the protocol: as §1

Another experiment deals with T5, PAK2 (Homo sapiens, UniProt Q13177).
T5 construct: purchased Reaction Biology Corp
A digest of the protocol: as §1

The next experiment deals with T6, RSK1 (Homo sapiens, UniProt Q15418).
T6 construct: purchased Reaction Biology Corp
A digest of the protocol:
as §1

In another experiment the target is T7, SGK1 (Homo sapiens, UniProt O00141).
T7 construct: purchased Reaction Biology Corp
T7 sequence (O00141 1-431): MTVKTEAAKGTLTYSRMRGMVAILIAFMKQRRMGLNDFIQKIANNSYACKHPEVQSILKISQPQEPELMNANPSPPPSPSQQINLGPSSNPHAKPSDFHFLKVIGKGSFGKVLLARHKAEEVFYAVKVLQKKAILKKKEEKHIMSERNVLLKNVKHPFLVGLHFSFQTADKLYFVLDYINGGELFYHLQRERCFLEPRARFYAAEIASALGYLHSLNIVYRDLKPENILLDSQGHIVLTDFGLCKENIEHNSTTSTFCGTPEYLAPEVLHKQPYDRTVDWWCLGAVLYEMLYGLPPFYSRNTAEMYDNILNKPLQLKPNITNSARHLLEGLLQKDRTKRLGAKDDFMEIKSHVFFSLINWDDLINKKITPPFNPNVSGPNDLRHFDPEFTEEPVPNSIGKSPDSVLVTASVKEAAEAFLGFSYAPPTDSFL
A digest of the protocol:
as §1

The target of another experiment is T8, WEE1 (Homo sapiens, UniProt P30291).
T8 construct: purchased Reaction Biology Corp
In a few lines: as §1

Setting [1] is: read-out: % Enzyme Activity (relative to DMSO controls) Run 1.
[2] abbreviates: read-out: % Enzyme Activity (relative to DMSO controls) Run 2.

Molecules are shown by their SMILES. Like-named read-outs stand apart in the source and are kept apart here.

T8 sequence (P30291 whole entry): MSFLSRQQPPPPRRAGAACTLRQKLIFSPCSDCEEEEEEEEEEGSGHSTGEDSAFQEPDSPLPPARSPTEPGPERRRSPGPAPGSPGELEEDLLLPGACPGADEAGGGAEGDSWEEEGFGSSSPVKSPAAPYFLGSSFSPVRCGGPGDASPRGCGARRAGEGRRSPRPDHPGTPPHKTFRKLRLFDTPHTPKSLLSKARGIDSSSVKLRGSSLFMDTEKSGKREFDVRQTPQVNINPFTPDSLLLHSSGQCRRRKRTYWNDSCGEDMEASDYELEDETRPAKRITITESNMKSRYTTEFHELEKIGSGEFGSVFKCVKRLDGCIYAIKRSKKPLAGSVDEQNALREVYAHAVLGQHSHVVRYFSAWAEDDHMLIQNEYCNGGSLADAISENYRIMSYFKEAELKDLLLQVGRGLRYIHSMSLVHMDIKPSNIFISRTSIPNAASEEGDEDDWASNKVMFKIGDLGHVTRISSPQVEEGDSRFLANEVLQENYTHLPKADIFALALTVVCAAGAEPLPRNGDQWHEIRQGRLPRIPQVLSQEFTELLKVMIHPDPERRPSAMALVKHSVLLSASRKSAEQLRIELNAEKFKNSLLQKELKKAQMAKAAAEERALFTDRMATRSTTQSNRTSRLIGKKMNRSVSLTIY
T6 sequence (Q15418 whole entry): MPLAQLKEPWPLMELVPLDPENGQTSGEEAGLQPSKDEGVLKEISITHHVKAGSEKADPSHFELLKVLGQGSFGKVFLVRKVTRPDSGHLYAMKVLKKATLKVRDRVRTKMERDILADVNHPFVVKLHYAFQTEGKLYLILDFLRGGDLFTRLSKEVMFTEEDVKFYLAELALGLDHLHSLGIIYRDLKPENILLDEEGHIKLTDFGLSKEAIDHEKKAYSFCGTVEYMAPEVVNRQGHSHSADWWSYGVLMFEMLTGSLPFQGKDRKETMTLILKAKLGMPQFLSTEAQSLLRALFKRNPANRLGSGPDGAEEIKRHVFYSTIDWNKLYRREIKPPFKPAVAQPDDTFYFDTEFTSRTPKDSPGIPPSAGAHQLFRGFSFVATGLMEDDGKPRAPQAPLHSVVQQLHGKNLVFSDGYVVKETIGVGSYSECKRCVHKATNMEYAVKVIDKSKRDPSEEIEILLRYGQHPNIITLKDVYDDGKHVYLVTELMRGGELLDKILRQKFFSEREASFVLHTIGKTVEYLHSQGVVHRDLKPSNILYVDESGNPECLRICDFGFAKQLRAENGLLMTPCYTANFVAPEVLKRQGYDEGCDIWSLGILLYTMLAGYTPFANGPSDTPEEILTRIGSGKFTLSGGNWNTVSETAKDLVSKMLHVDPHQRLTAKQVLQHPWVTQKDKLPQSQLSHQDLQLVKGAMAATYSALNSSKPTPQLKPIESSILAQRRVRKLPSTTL
T2 sequence (P14616 27-1297): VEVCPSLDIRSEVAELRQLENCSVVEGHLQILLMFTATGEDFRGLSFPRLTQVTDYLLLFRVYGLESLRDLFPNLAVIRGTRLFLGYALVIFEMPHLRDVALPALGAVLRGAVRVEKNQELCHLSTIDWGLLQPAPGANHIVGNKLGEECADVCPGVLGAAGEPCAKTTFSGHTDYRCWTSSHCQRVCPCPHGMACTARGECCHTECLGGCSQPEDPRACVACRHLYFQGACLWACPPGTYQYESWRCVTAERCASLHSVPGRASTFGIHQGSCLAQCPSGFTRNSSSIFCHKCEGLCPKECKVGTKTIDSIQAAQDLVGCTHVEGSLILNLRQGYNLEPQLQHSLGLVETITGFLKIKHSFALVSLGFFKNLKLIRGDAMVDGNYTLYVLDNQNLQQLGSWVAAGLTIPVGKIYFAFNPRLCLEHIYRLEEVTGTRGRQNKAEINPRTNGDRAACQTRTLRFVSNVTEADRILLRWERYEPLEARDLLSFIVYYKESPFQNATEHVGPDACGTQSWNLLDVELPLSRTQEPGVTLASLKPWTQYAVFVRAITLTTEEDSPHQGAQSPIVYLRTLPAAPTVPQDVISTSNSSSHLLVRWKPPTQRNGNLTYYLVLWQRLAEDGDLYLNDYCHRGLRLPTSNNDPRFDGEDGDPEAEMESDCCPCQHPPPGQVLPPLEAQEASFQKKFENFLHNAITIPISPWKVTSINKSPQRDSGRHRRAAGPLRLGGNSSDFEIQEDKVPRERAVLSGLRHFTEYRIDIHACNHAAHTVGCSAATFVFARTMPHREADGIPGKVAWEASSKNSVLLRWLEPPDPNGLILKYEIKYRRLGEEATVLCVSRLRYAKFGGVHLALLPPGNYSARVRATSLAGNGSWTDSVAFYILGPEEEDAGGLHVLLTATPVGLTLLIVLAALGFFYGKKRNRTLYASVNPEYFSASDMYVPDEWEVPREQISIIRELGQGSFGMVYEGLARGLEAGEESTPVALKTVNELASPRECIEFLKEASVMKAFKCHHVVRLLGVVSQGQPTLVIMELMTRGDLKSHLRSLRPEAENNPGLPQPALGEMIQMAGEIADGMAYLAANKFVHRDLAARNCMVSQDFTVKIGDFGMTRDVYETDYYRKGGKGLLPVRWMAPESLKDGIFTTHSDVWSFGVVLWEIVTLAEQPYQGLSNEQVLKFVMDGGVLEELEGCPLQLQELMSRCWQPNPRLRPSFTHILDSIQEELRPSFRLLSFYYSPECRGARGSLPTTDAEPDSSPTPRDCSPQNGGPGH
T1 sequence (P50613 whole entry): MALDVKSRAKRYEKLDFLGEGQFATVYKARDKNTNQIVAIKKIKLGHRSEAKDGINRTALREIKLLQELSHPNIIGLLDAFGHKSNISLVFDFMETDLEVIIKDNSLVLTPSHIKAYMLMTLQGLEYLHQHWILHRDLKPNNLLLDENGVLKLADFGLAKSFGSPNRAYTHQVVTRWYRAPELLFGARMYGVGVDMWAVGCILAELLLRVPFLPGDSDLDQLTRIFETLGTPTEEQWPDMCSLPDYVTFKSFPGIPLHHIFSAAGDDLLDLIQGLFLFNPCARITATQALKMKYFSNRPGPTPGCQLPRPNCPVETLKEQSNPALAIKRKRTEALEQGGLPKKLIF
T1 sequence (P51946 whole entry partner): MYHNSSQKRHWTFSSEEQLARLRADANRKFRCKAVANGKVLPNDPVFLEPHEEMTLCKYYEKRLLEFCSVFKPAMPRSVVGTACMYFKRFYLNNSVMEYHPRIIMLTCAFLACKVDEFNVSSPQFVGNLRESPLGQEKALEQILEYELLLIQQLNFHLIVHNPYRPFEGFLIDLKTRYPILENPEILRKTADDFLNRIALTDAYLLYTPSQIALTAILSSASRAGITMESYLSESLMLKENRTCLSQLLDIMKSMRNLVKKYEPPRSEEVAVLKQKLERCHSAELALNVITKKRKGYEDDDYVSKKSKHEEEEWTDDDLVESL
T1 sequence (P51948 whole entry partner): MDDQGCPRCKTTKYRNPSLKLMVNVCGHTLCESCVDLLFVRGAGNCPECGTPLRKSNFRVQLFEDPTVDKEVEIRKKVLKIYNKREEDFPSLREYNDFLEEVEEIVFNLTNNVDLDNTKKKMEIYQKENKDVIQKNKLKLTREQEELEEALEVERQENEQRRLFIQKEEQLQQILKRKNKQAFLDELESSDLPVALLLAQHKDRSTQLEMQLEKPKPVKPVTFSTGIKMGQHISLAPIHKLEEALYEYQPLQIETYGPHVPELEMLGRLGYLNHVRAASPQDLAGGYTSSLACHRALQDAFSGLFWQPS
T5 sequence (Q13177 whole entry): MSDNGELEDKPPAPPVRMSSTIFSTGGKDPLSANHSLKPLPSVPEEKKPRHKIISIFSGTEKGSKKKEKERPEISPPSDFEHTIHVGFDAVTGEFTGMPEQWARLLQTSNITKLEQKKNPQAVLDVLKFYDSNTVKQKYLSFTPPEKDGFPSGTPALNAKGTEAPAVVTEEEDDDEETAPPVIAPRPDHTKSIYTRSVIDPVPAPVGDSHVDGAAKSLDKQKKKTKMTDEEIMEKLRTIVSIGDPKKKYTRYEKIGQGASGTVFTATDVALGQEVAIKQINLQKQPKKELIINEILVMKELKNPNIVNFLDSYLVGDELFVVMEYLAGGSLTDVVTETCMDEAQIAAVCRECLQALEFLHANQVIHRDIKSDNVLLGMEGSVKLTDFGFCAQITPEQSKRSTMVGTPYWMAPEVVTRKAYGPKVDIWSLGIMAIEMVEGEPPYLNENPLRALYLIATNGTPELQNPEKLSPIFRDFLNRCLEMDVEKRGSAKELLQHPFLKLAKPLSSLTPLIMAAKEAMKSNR

The term inhibition denotes the share of the control response that was lost under treatment. A low value points to a weak effect. As for `C=CC(=O)Nc1cccc(Nc2nc(Nc3ccc(OCCOC)c(F)c3)ncc2F)c1` [Compound 2], the inhibition at 3 µM is 2.36% on CDK7/cyclin H; 10.1% at IRR/INSRR; 18.5% against MARK4; 39.4% against NEK5; 4.8% at PAK2; 27.1% against RSK1. The inhibition at 3 µM came out at 0.37% against SGK1 and 26% against WEE1. Besides, the remaining activity at 3 µM turned out to be 98.1% on CDK7/cyclin H (setting [1]); 97.2% on CDK7/cyclin H (setting [2]); 88.9% on IRR/INSRR (setting [1]); 91% at IRR/INSRR (setting [2]); 82.2% at MARK4 (setting [1]); 80.9% at MARK4 (setting [2]). The remaining activity at 3 µM on NEK5 (setting [1]) was 60.2%; on NEK5 (setting [2]) it was 60.9%; on PAK2 (setting [1]), 95.5%; on PAK2 (setting [2]), 94.9%; at RSK1 (setting [1]), 73.3%; on RSK1 (setting [2]), 72.5%. Also, the remaining activity at 3 µM at SGK1 (setting [1]) came out at 99.7%; on SGK1 (setting [2]), 99.5%; at WEE1 (setting [1]), 73.1%; on WEE1 (setting [2]), 74.9%.

For the origin of these results see patent US9492471B2, “Methods of treating a disease or disorder associated with Bruton'S Tyrosine Kinase” (Celgene Avilomics Research, Inc., priority 2013, dated 2016).
